Results: patent US4169096A, “Antibiotic compounds” (priority 1977, dated 1979)
≈ marks a conversion by molar mass, not a printed value. Structures can show the parent of a compound that is named as a salt. Where two headings read alike, the source gives them in different places.

Experiments:
B. fragilis A20926 = assay: Localized infection with B. fragilis in mice; type: in vivo; details: for mean score: control 4.2; for sum of score: control 21; for infectivity level: control 100%
C. perfringens A9635 [1] = assay: microbe, parasite or virus in culture; type: cell-based; details: Clostridium perfringens, A9635, read-out: MIC in GAM broth, inoculum size […] 10^6 cell/ml
[2] = tested on: Klebsiella pneumoniae A9678; assay: MIC, serial two-fold agar dilution, aerobic bacteria; type: cell-based; details: Nutrient agar (Eiken), read-out: MIC
B. fragilis A20928-1 [3] = assay: Bactericidal activity (MIC & MBC); type: cell-based; details: Bacteroides fragilis, A209281, inoculum size 2.8 × 10^6 cell/ml
[4] = tested on: Staphylococcus aureus #52-34; assay: MIC, serial two-fold agar dilution, aerobic bacteria; type: cell-based
[5] = tested on: aerobic and anaerobic bacteria; assay: Antibacterial activity and spectrum (in words); type: cell-based
Proteus mirabilis A9554 = assay: MIC, serial two-fold agar dilution, aerobic bacteria; type: cell-based; details: Nutrient agar (Eiken)
[6] = tested on: Neisseria gonorrhoeae A20154; assay: as above; type: cell-based; details: GC medium (Eiken)
Micrococcus flavus = assay: as above; type: cell-based; details: Nutrient agar (Eiken), read-out: MIC
[7] = tested on: Streptococcus pyogenes A9604; assay: as above; type: cell-based; details: GC medium (Eiken)
[8] = tested on: Neisseria gonorrhoeae A15112; assay: as above; type: cell-based; details: GC medium (Eiken)
C. perfringens A9635 [9] = assay: animal or person; type: in vivo, mice; details: Clostridium perfringens, A9635, in Mus musculus, 120 h, read-out: PD50
Proteus morganii A9553 = assay: MIC, serial two-fold agar dilution, aerobic bacteria; type: cell-based; details: Morganella morganii, Nutrient agar (Eiken)
[10] = tested on: two anaerobic and one aerobic organisms; assay: Bactericidal potential (in words); type: cell-based
C. perfringens A9635 [11] = assay: microbe, parasite or virus in culture; type: cell-based; details: Clostridium perfringens, A9635, 18 h
[12] = tested on: Pseudomonas aeruginosa A9843; assay: MIC, serial two-fold agar dilution, aerobic bacteria; type: cell-based; details: test medium not given
B. fragilis A20928-1 [13] = assay: Inoculum size effect on MIC, GAM broth; type: cell-based; details: Bacteroides fragilis
S. pyogenes A20201 [14] = assay: Systemic infection with S. pyogenes in mice; type: in vivo; details: Streptococcus pyogenes, A20201, 120 h, just before challenge, determined after 5 days, read-out: PD50
[15] = tested on: Hemophilus influenzae A20188; assay: MIC, serial two-fold agar dilution, aerobic bacteria; type: cell-based; details: Haemophilus influenzae, GC medium (Eiken)
Sarcina lutea PCI-1001 = assay: as above; type: cell-based; details: Micrococcus luteus, PCI1001
[16] = tested on: Staphylococcus aureus 209P; assay: as above; type: cell-based; details: Nutrient agar (Eiken)
[17] = tested on: Streptococcus pyogenes A20201; assay: as above; type: cell-based; details: GC medium (Eiken)
[18] = tested on: Bacillus cereus ATCC 10702 A; assay: as above; type: cell-based; details: ATCC10702, Nutrient agar (Eiken), read-out: MIC
S. pyogenes A20201 [19] = assay: Bactericidal activity (MIC & MBC); type: cell-based; details: Streptococcus pyogenes, A20201, 18 h
[20] = tested on: Streptococcus viridans A21354; assay: MIC, serial two-fold agar dilution, aerobic bacteria; type: cell-based; details: GC medium (Eiken)
[21] = tested on: Serratia marcescens A20019; assay: as above; type: cell-based; details: Nutrient agar (Eiken), read-out: MIC
[22] = tested on: Neisseria meningitidis A20049; assay: as above; type: cell-based; details: GC medium (Eiken), read-out: MIC
[23] = tested on: Escherichia coli Juhl A15119; assay: as above; type: cell-based; details: JUHLA15119, Nutrient agar (Eiken), read-out: MIC
[24] = tested on: Neisseria meningitidis A21496; assay: as above; type: cell-based; details: GC medium (Eiken)
Solubility = type: physicochemical
[25] = tested on: two anaerobic organisms (B. fragilis and C. perfringens); type: cell-based; details: broth dilution method
[26] = tested on: Diplococcus pneumoniae A9585; assay: MIC, serial two-fold agar dilution, aerobic bacteria; type: cell-based; details: Streptococcus pneumoniae, GC medium (Eiken)
aerobic organisms = assay: Antibacterial activity against aerobic bacteria (in words); type: cell-based; details: Bacillus species, streptococci, Neisseria meningtidis, N. gonorrhoeae, Hemophilus influenzae
[27] = tested on: Staphylococcus aereus Smith; assay: MIC, serial two-fold agar dilution, aerobic bacteria; type: cell-based
[28] = tested on: C. perfringens or S. pyrogenes; type: in vivo, mice; details: subcutaneous and oral
Stability in solution = type: physicochemical
[29] = pKa' by titration in aqueous ethanol; type: physicochemical; details: 46% aqueous ethanol
[30] = tested on: Hemophilus influenzae A9832; assay: MIC, serial two-fold agar dilution, aerobic bacteria; type: cell-based; details: Haemophilus influenzae, GC medium (Eiken)
[31] = tested on: Escherichia coli K-12 A9632; assay: as above; details: K12A9632
[32] = tested on: Peptostreptococcus anaerobius B43; type: cell-based; details: GAM agar medium (Nissui)
B. fragilis A20928-1 [33] = assay: Inoculum size effect on MIC, GAM agar; type: cell-based; details: Bacteroides fragilis, A209281; inoculum size 1.2 × 10^6 cell/ml
[34] = tested on: Bacillus subtilis PCI-219; assay: MIC, serial two-fold agar dilution, aerobic bacteria; type: cell-based; details: PCI219, Nutrient agar (Eiken), read-out: MIC

With COC(=O)C1C(C)OC2(C)CC(=O)C3OC12OC(C(C)/C=C(C)/C=C/C(=O)C1=C(O)CNC1=O)C3C (stereo not shown) [Bu-2313B (Na salt)] the mean score (B. fragilis A20926; oral, 6.3 × 5 mg/kg) was 3.4, the sum of score (B. fragilis A20926; oral, 6.3 × 5 mg/kg) was 17 and the infectivity level (B. fragilis A20926; oral, 6.3 × 5 mg/kg) was 81.0%. The mean score (B. fragilis A20926; oral, 25 × 5 mg/kg) was 3.0, the sum of score (B. fragilis A20926; oral, 25 × 5 mg/kg) was 15 and the infectivity level (B. fragilis A20926; oral, 25 × 5 mg/kg) was 71.4%. It also gave a mean score (B. fragilis A20926; oral, 100 × 5 mg/kg) of 2.4, a sum of score (B. fragilis A20926; oral, 100 × 5 mg/kg) of 12 and an infectivity level (B. fragilis A20926; oral, 100 × 5 mg/kg) of 57.1%. For the same compound, the mean score (B. fragilis A20926; oral, […] 5 mg/kg) was 4.0, the sum of score (B. fragilis A20926; oral, […] 5 mg/kg) was 20 and the infectivity level (B. fragilis A20926; oral, […] 5 mg/kg) was 95.2%. It also gave a mean score (B. fragilis A20926; subcutaneous, 0.8 × 5 mg/kg) of 4.0, a sum of score (B. fragilis A20926; subcutaneous, 0.8 × 5 mg/kg) of 20 and an infectivity level (B. fragilis A20926; subcutaneous, 0.8 × 5 mg/kg) of 95.2%. It also gave a mean score (B. fragilis A20926; subcutaneous, 3.1 × 5 mg/kg) of 3.4, a sum of score (B. fragilis A20926; subcutaneous, 3.1 × 5 mg/kg) of 17 and an infectivity level (B. fragilis A20926; subcutaneous, 3.1 × 5 mg/kg) of 81.0%. The mean score (B. fragilis A20926; subcutaneous, 50 × 5 mg/kg) was 2.2, the sum of score (B. fragilis A20926; subcutaneous, 50 × 5 mg/kg) was 11 and the infectivity level (B. fragilis A20926; subcutaneous, 50 × 5 mg/kg) was 52.4%. It also gave a mean score (B. fragilis A20926; subcutaneous, […] 5 mg/kg) of 2.8, a sum of score (B. fragilis A20926; subcutaneous, […] 5 mg/kg) of 14 and an infectivity level (B. fragilis A20926; subcutaneous, […] 5 mg/kg) of 66.7%. For the same compound, the LD50 (Acute toxicity; ip) was 55 mg/kg, the LD50 (Acute toxicity; sc) was 200 mg/kg and the LD50 (in vivo; po, LD50, po) was 280 mg/kg.

In the case of COC(=O)C1C(C)OC2(C)CC(=O)C3OC12OC(C(C)/C=C(C)/C=C/C(=O)C1=C(O)CNC1=O)C3C (stereo not shown) [Bu-2313B], the MIC (C. perfringens A9635 [1]) is reported as 25 µg/mL (≈ 49.6 µM), the MIC [2] is reported as > 100 µg/mL and the MIC (B. fragilis A20928-1 [3]; broth) is reported as 0.006 µg/mL (≈ 0.0119 µM). For the same compound, the MBC (B. fragilis A20928-1 [3]; growth of less than 100 colonies per plate, 18 hours at 37° C.) was > 0.8 µg/mL, the MIC [4] was 12.5 µg/mL (≈ 24.8 µM) and the antibacterial activity [5] was “exhibit antibacterial activity against a variety of anaerobic bacteria and some aerobic bacteria”. The “comparative activity and antibacterial spectrum” value ([5]; in vitro) was “very similar to those of tirandamycin”, the MIC (Proteus mirabilis A9554) was > 100 µg/mL and the MIC [6] was 0.8 µg/mL (≈ 1.59 µM). For the same compound, the MIC (Micrococcus flavus) was 25 µg/mL (≈ 49.6 µM), the MIC [7] was 0.4 µg/mL (≈ 0.794 µM) and the MIC [8] was 0.8 µg/mL (≈ 1.59 µM). The ED50 (C. perfringens A9635 [9]; po) was 30 mg/kg, the ED50 (C. perfringens A9635 [9]; sc) was 6.25 mg/kg and the MIC (Proteus morganii A9553) was > 100 µg/mL. For the same compound, the LD50 (Acute toxicity; ip, listed as Bu-2313B (free acid)) was 115 mg/kg, the comparative acute toxicity (Acute toxicity; sc, ip and oral LD50) was “significantly lower toxicity than Bu-2313A” and the antibacterial action [10] was “bacteriostatic rather than bactericidal”. The MBC (C. perfringens A9635 [11]) was 12.5 µg/mL (≈ 24.8 µM), the LD50 (in vivo; sc, LD50, sc) was 225 mg/kg and the MIC [12] was > 100 µg/mL. It also gave an MIC (B. fragilis A20928-1 [13]; A209281, inoculum size […] 10^7 cell/ml, read-out: MIC in GAM broth) of 0.4 µg/mL (≈ 0.794 µM), an MIC (B. fragilis A20928-1 [13]; A209281, read-out: MIC in GAM broth, inoculum size […] 10^6 cell/ml) of 0.013 µg/mL (≈ 0.0258 µM) and an ED50 (S. pyogenes A20201 [14]; po, NA: no activity) of 25 mg/kg. The ED50 (S. pyogenes A20201 [14]; sc) was 9 mg/kg, the MIC [15] was 0.8 µg/mL (≈ 1.59 µM) and the MIC (Sarcina lutea PCI-1001) was 12.5 µg/mL (≈ 24.8 µM). The MIC [16] was 25 µg/mL (≈ 49.6 µM), the MIC [17] was 0.4 µg/mL (≈ 0.794 µM) and the MIC [18] was 0.8 µg/mL (≈ 1.59 µM). For the same compound, the MBC (S. pyogenes A20201 [19]) was 12.5 µg/mL (≈ 24.8 µM), the MIC [20] was 0.4 µg/mL (≈ 0.794 µM) and the MIC [21] was > 100 µg/mL. The MIC [22] was 0.8 µg/mL (≈ 1.59 µM), the MIC [23] was > 100 µg/mL and the MIC [24] was 1.6 µg/mL (≈ 3.18 µM). For the same compound, the solubility (Solubility; hexane and alkaline water) was “slightly soluble”, the solubility (Solubility; most organic solvents such as lower alcohols, ethyl acetate, chloroform and benzene) was “readily soluble” and the solubility (Solubility; water) was “practically insoluble”. The “influence of inoculum size on MIC” value [25] was “greatly affected by inoculum size”, the MIC [26] was 0.4 µg/mL (≈ 0.794 µM) and the “susceptibility of aerobic strains” value (aerobic organisms) was “susceptible”. For the same compound, the MIC [27] was 12.5 µg/mL (≈ 24.8 µM), the “protection against systemic infections” value [28] was “fairly good protection” and the stability (Stability in solution; acidic solution) was “stable”. For the same compound, the stability (Stability in solution; alkaline solution, N/10 NaOH, room temperature, overnight) was “inactivated”, the pKa [29] was 4.9 and the MIC [30] was 0.4 µg/mL (≈ 0.794 µM). The MIC [31] was > 100 µg/mL, the MIC [32] was 0.4 µg/mL (≈ 0.794 µM) and the MIC (B. fragilis A20928-1 [33]) was 0.05 µg/mL (≈ 0.0993 µM). The MIC [34] was 1.6 µg/mL (≈ 3.18 µM).
